From ChEMBL document CHEMBL5120839, “Design, synthesis and antibacterial activity of novel pleuromutilin derivatives with thieno[2,3-d]pyrimidine substitution” (Eur J Med Chem, 2022)
Values after ≈ are worked out from the molar mass of the structure shown. Active and inactive are the calls of the source. The calls are words filed in the database; no cut-off is given here.

Tests used:
Staphylococcus aureus [1] = assay: Antibacterial activity against Staphylococcus aureus assessed as diameter of the inhibition circle at 1 mg/ml incubated for 48 hrs; type: functional
Staphylococcus aureus [2] = assay: Bactericidal activity against Staphylococcus aureus assessed as bacterial killing at 8 times MIC incubated up to 24 hrs by time kill assay; type: functional, organism-based
Staphylococcus aureus [3] = assay: Antibacterial activity against Methicillin-resistant Staphylococcus aureus BNCC 337371 assessed as inhibition of bacterial growth incubated for 24 hrs by microbroth two-fold dilution method; type: functional
Staphylococcus aureus [4] = assay: Antibacterial activity against Staphylococcus aureus assessed as inhibition of bacterial growth incubated for 24 hrs by microbroth two-fold dilution method; type: functional
Streptococcus agalactiae [5] = assay: Antibacterial activity against Streptococcus agalactiae assessed as inhibition of bacterial growth incubated for 24 hrs by microbroth two-fold dilution method; type: functional
Escherichia coli [6] = assay: Antibacterial activity against Escherichia coli assessed as inhibition of bacterial growth incubated for 24 hrs by microbroth two-fold dilution method; type: functional
Staphylococcus aureus [7] = assay: Bactericidal activity against Staphylococcus aureus assessed as bacterial killing at 32 times MIC incubated for 9 hrs by time kill assay; type: functional
Staphylococcus aureus [8] = assay: Bactericidal activity against Staphylococcus aureus assessed as bacterial killing at 1 to 4 times MIC incubated up to 24 hrs by time kill assay; type: functional
Staphylococcus aureus [9] = assay: Bactericidal activity against Staphylococcus aureus assessed as bacterial killing at 32 times MIC incubated for 12 hrs by time kill assay; type: functional
Escherichia coli [10] = assay: Antibacterial activity against Escherichia coli assessed as bacterial growth by measuring optical density at 0.5 times MIC incubated for 12 hrs by real time growth curve analysis; type: functional
Escherichia coli [11] = assay: Antibacterial activity against Escherichia coli assessed as bacterial growth by measuring optical density at 1 to 2 times MIC incubated for 12 hrs by real time growth curve analysis; type: functional
L02 = assay: Cytotoxicity against human L02 cells assessed as cell viability incubated for 16 hrs by MTT assay; type: toxicity, cell-based; settings: l02, 16 h
Streptococcus agalactiae [12] = assay: Antibacterial activity against Streptococcus agalactiae assessed as bacterial growth by measuring optical density at 1 to 2 times MIC incubated for 12 hrs by real time growth curve analysis; type: functional
Streptococcus agalactiae [13] = assay: Antibacterial activity against Streptococcus agalactiae assessed as bacterial growth by measuring optical density at 0.5 times MIC incubated for 12 hrs by real time growth curve analysis; type: functional
HEK-293T = assay: Cytotoxicity against human HEK293T cells assessed as cell viability incubated for 16 hrs by MTT assay; type: toxicity, cell-based
Staphylococcus aureus [14] = assay: Antibacterial activity against Staphylococcus aureus assessed as bacterial growth by measuring optical density incubated for 12 hrs by real time growth curve analysis; type: functional
Staphylococcus aureus [15] = assay: Bactericidal activity against Staphylococcus aureus assessed as bacterial killing at 16 times MIC incubated for 12 hrs by time kill assay; type: functional
Shigella dysenteriae = assay: Antibacterial activity against Shigella dysenteriae assessed as inhibition of bacterial growth; type: functional
[16] = test system: Mycoplasmoides pneumoniae; assay: Antibacterial activity against Mycoplasma pneumoniae assessed as inhibition of bacterial growth; type: functional

C=C[C@]1(C)C[C@@H](OC(=O)CSCCN(CC)CC)[C@]2(C)[C@H](C)CC[C@]3(CCC(=O)[C@H]32)[C@@H](C)[C@@H]1O [TIAMULIN]
inhibition zone diameter (Staphylococcus aureus [1]): 25.2 mm | Activity (Staphylococcus aureus [2]): Active | MIC (Staphylococcus aureus [3]): 0.488 µg/mL (≈ 0.989 µM) | MIC (Staphylococcus aureus [4]): 0.488 µg/mL (≈ 0.989 µM) | MIC (Streptococcus agalactiae [5]): 0.122 µg/mL (≈ 0.247 µM) | MIC (Escherichia coli [6]): 15.6 µg/mL (≈ 31.6 µM)

C=C[C@]1(C)C[C@@H](OC(=O)CSc2nc(N3CCN(CC)CC3)c3ccsc3n2)[C@]2(C)[C@H](C)CC[C@]3(CCC(=O)[C@H]32)[C@@H](C)[C@@H]1O
Activity (Staphylococcus aureus [7]): 99.9% | Activity (Staphylococcus aureus [8]): 99.9% | Activity (Staphylococcus aureus [9]): 99.9% | OD (Escherichia coli [10]): <0.3 | inhibition zone diameter (Staphylococcus aureus [1]): 33.5 mm | OD (Escherichia coli [11]): 0.1 | MIC (Staphylococcus aureus [3]): 0.0076 µg/mL (≈ 0.0119 µM) | MIC (Staphylococcus aureus [4]): 0.0019 µg/mL (≈ 0.00296 µM) | Activity (L02): Non-Toxic | OD (Streptococcus agalactiae [12]): 0.1 | OD (Streptococcus agalactiae [13]): <0.3 | Activity (HEK-293T): Non-Toxic | MIC (Streptococcus agalactiae [5]): 0.122 µg/mL (≈ 0.191 µM) | MIC (Escherichia coli [6]): 0.122 µg/mL (≈ 0.191 µM) | OD (Staphylococcus aureus [14]): <0.2 | Activity (Staphylococcus aureus [15]): 99.9%

C=C[C@]1(C)C[C@@H](OC(=O)CSc2nc(NCCO)c3ccsc3n2)[C@]2(C)[C@H](C)CC[C@]3(CCC(=O)[C@H]32)[C@@H](C)[C@@H]1O
Activity (Staphylococcus aureus [8]): 99.9% | OD (Escherichia coli [10]): <0.3 | inhibition zone diameter (Staphylococcus aureus [1]): 33 mm | OD (Escherichia coli [11]): 0.1 | MIC (Staphylococcus aureus [3]): 0.0019 µg/mL (≈ 0.00323 µM) | MIC (Staphylococcus aureus [4]): 0.0019 µg/mL (≈ 0.00323 µM) | Activity (L02): Non-Toxic | OD (Streptococcus agalactiae [12]): 0.1 | OD (Streptococcus agalactiae [13]): <0.3 | Activity (HEK-293T): Non-Toxic | MIC (Streptococcus agalactiae [5]): 0.0019 µg/mL (≈ 0.00323 µM) | MIC (Escherichia coli [6]): 0.0076 µg/mL (≈ 0.0129 µM) | OD (Staphylococcus aureus [14]): <0.2

C=C[C@]1(C)C[C@@H](OC(=O)CSC(C)(C)CNC(=O)[C@H](N)C(C)C)[C@]2(C)[C@H](C)CC[C@]3(CCC(=O)[C@H]32)[C@@H](C)[C@@H]1O [VALNEMULIN]
MIC (Shigella dysenteriae): 0.03 µg/mL (≈ 0.0531 µM) | MIC [16]: 0.03 µg/mL (≈ 0.0531 µM)

C=C[C@]1(C)C[C@@H](OC(=O)CSc2nc(N3CCNCC3)c3ccsc3n2)[C@]2(C)[C@H](C)CC[C@]3(CCC(=O)[C@H]32)[C@@H](C)[C@@H]1O
OD (Escherichia coli [10]): <0.3 | inhibition zone diameter (Staphylococcus aureus [1]): 26.8 mm | OD (Escherichia coli [11]): 0.1 | MIC (Staphylococcus aureus [3]): 0.122 µg/mL (≈ 0.199 µM) | MIC (Staphylococcus aureus [4]): 0.0076 µg/mL (≈ 0.0124 µM) | OD (Streptococcus agalactiae [12]): 0.1 | OD (Streptococcus agalactiae [13]): <0.3 | MIC (Streptococcus agalactiae [5]): 0.0153 µg/mL (≈ 0.025 µM) | MIC (Escherichia coli [6]): 0.976 µg/mL (≈ 1.59 µM) | OD (Staphylococcus aureus [14]): <0.3
